Laboratory results: article PMC8619673 (Cells, 2021)

Key:
[1] = system: Aβ-GFP SH-SY5Y cells; experiment: Neurite outgrowth analysis; assay type: cell-based, Human; conditions: 5 µM; for Neurite total length: induced untreated 23.9, uninduced 31.2; for Neurite length: untreated 25.3
Method: Aβ-GFP SH-SY5Y cells (6 × 10^4 cells) were seeded on a 24-well plate with retinoic acid (10 µM) on day 1. Tested coumarins (5 µM) and doxycycline (5 μg/mL) were added on day 2, as described. On day 8, the cells were washed with phosphate-buffered saline (PBS) twice and fixed in 4% paraformaldehyde at 4 °C for 15 min. Cells were permeabilized with Triton X-100 (0.1%) for 10 min, blocked with bovine serum albumin (3%) for 20 min, and stained with anti-neuronal TUBB3 antibody (1:1000; Covance, Princeton, NJ, USA) at 4 °C overnight. The next day, cells were washed with PBS twice and stained by a secondary donkey anti-rabbit Alexa Fluor® 555 antibody (1:1000; Thermo Fisher Scientific) and 4′,6-diamidino-2-phenylindole (DAPI; 0.1 µg/mL; Sigma-Aldrich) at room temperature for 1 h. Neuronal images from at least 60 individual fields (150–250 neurons per field) per experiment were captured at excitation 531/40 nm and emission 593/40 nm wavelengths using an ImageXpress micro confocal high-content imaging system (Molecular Devices). Neurite total length (μm) and numbers of process (the number of primary neurites originated from the cell body of a neuron) and branch (the number of secondary neurites extended from primary neurites) were analyzed using a MetaXpress neurite outgrowth application module (Molecular Devices). For each sample, around 6000 cells were analyzed in each of three independent experiments.
Lentiviral short hairpin RNA (shRNA) targeting TRKB (TRCN0000002243, TRCN0000002245, and TRCN0000002246) and a negative-scrambled control (TRC2.Void) were obtained from the National RNAi Core Facility, IMB/GRC, Academia Sinica (Taipei, Taiwan). As described, cells were plated on 6- or 24-well plates, with retinoic acid added on day 1. Cells were infected with lentivirus (multiplicity of infection, 3 for each shRNA), with polybrene (8 µg/mL; Sigma-Aldrich) on the next day. Cells were pretreated with tested compounds (5 µM) for 8 h after changing medium, followed by doxycycline on day 3. Cells were collected for further analysis on day 9. The hairpin sequences of targeting shRNA were below: • TRCN0000002243: 5’-[…]ctcgag[…]-3’ • TRCN0000002245: 5’-[…]ctcgagATGTT-[…]-3’ • TRCN0000002246: 5’-[…]ctcgag[…]-3’ • TRC2.Void: 5’-[…]ctcgag[…]-3’

[2] = in vitro; conditions: PAMPA
Method: PAMPA was used to predict the penetration of the tested compounds across the BBB. […] The filter PVDF membrane (pore size 0.45 μm; Millipore) was coated with 4 μL of porcine polar brain lipid (20 mg/mL; Avanti Polar Lipids, Alabaster, AL, USA) in dodecane and the acceptor well filled with 200 μL of 5% DMSO in PBS. The filter plate was carefully placed on the donor plate to form a sandwich plate at room temperature for 18 h. After the permeation time, the filter and donor plates were separated. The concentration of the tested compound in the donor and acceptor wells was measured by an AB Sciex QTrap 5500 mass spectrometer (Applied Biosystems) linked to a 1200 HPLC system (Agilent Technologies, Palo Alto, CA, USA). The concentrations of the QC compounds were determined by a Tecan Infinite M200 Pro microplate reader (Switzerland). The effective permeability coefficient (Pe) was calculated as described. Each compound was tested in triplicate.

[3] = system: Aβ-GFP SH-SY5Y cells; experiment: Aβ-GFP fluorescence (Aβ-GFP folding reporter); assay type: cell-based, Human; conditions: 1–5 μM, normalized with cell number, day 8
Method: To induce neuronal differentiation, 2 × 10^4 Aβ-GFP SH-SY5Y cells were seeded on a 96-well plate with retinoic acid (10 µM; Sigma-Aldrich). Cells were pretreated with tested compounds (0.2–5 µM) on day 2 for 8 h and then with doxycycline (5 μg/mL) to induce Aβ-GFP expression. Medium containing retinoic acid compound and doxycycline was refreshed every 2 days for 6 days. Then, cells were stained with Hoechst 33342 (0.1 µg/mL; Sigma-Aldrich) at 37 °C for 30 min. Cell images were recorded at 482/35 nm excitation and 536/40 nm emission wavelengths (ImageXpres Micro Confocal High-Content Imaging System; Molecular Devices, Sunnyvale, CA, USA), and analyzed by MetaXpress (Molecular Devices).

[4] = 1,1-diphenyl-2-picrylhydrazyl radical scavenging; conditions: data not shown
[5] = system: BAX; experiment: Western blot, BAX; assay type: cell-based, Human; conditions: 5 µM; induced untreated 182%
Method: Cellular proteins were prepared using a lysis buffer containing NaCl (150 mM), ethylene diamine tetraacetic acid (EDTA, 1 mM, pH8.0), Tris-HCl (50 mM, pH8.0), ethylene glycol tetraacetic acid (EGTA, 1 mM, pH8.0), sodium dodecyl sulfate (SDS, 0.1%), sodium deoxycholate (SD, 0.5%), Triton X-100 (1%), and protease (Sigma-Aldrich), and phosphatase (Abcam, Cambridge, MA, USA) inhibitor cocktails. After quantitation by protein assay kit (Bio-Rad, Hercules, CA, USA), 20 µg proteins were separated by SDS-polyacrylamide (10%) gel electrophoresis and transferred to polyvinylidene difluoride (PVDF) membranes (Sigma-Aldrich) using a Mini Trans-Blot cell (Bio-Rad). After blocking, the membrane was probed with anti-TRKB, anti-p-TRKB (Y516), anti-p-TRKB (Y817) (1:500; Cell Signaling, Danvers, MA, USA), anti-ERK, anti-p-ERK (T202/Y204) (1:1000; Cell Signaling), anti-AKT, anti-p-AKT (S473) (1:1000; Cell Signaling), anti-CREB, anti-p-CREB (S133) (1:1000; Millipore, Billerica, MA, USA), anti-BDNF, anti-BCL2 (1:500; Santa Cruz Biotechnology, Santa Cruz, CA, USA), anti-BAX (1:1000; Cell Signaling), anti-β-tubulin (1:500; Sigma-Aldrich), or anti-GAPDH (1:1000, MDBio, Taipei, Taiwan) antibody. The immune complexes were detected using goat anti-mouse or goat anti-rabbit IgG antibody conjugated with horseradish peroxidase (1:5000; GeneTex, Irvine, CA, USA) and chemiluminescent substrate (Millipore).

[6] = TRKB shRNA-infected cells, untreated 2.9
[7] = induced untreated 1.8, uninduced 2.8
[8] = induced untreated 3.3, uninduced 4.4
[9] = scrambled shRNA-infected cells, untreated 2.4
[10] = scrambled shRNA-infected cells, untreated 3.5
[11] = BBB Permeability Classification
[12] = Measured Pe (effective permeability)

Structure (SMILES)	Neurite process number [1, 6]	Neurite branch number [1, 7]	Neurite process number [1, 8]	Neurite total length [1]	Neurite branch number [1, 9]	Neurite process number [1, 10]	Neurite length ([1]; scrambled shRNA-infected cells)	Papp at 18 h, 1 μM [2, 11] [nm/s]	Papp at 18 h, 1 μM [2, 12] [nm/s]	GFP fluorescence intensity relative to untreated cells (100%) [3]	1,1-diphenyl-2-picrylhydrazyl radical scavenging activity [4]	BAX protein level relative to uninduced cells (100%) [5] [%]
CCOC(=O)c1cc2c(O)cccc2oc1=O [ZN014, ethyl 5-hydroxy-2-oxo-2H-chromene-3-carboxylate]	3.5	2.4–2.5	4.2–4.3	29.1–29.3 μm	3.0–3.1	3.9–4.0	30.7–30.9 µm	< 20	5.6 ± 0.1	111–119%	no 1,1-diphenyl-2-picrylhydrazyl radical scavenging activity	126
O=C(/C=C/c1ccccc1O)c1c(O)c2ccccc2oc1=O [ZN015, (E)-4-hydroxy-3-(3-(2-hydroxyphenyl)acryloyl)-2H-chromen-2-one]	3.5	2.4–2.5	4.2–4.3	29.1–29.3 μm	3.0–3.1	3.9–4.0	30.7–30.9 µm	> 40	51.6 ± 1.1	113–125%	no 1,1-diphenyl-2-picrylhydrazyl radical scavenging activity	126
